Test results taken from paper PMC11289455 (Scientific Reports, 2024).
Values joined by “and” are separate entries in the source; they are usually repeats but may differ in a detail not shown here. Equal entries are not always repeated. Positions of bridges follow the written chain, without caps; N, C: chain ends. Non-standard residues stand in square brackets, D forms with d. Trp(7-Me) = Cc1cccc2c(C[C@H](N)C(=O)O)c[nH]c12; 2Nal = N[C@@H](Cc1ccc2ccccc2c1)C(=O)O; AEF = NCCOc1ccc(C[C@H](N)C(=O)O)cc1; 3Pal = N[C@@H](Cc1cccnc1)C(=O)O; Pen = CC(C)(S)[C@H](N)C(=O)O; Thp = NC1(C(=O)O)CCOCC1; Sar = CNCC(=O)O

How the values were obtained:
[1] = system: IL-12– and IL-23–dependent phosphorylation of STAT4 and STAT3; design: method as in PMID 31341059; settings: cited from earlier work
[2] = target: T1, Biotinylated recombinant rat IL23R (rIL23R^biot, hGH.ratIL23R.24-317.GS.Avi.TEV.8His) (rat, UniProt F1LX96 24-317, biotinylated (TurboBiotinylase)); test: SPR; ~2500 RU biotinylated rat IL-23R captured on a streptavidin chip; JNJ-77242113 injected at multiple concentrations; PBS, 0.05% P20, 5% DMSO; 37 °C; association 150 s, dissociation 2000 s; Biacore 8K+, parallel kinetics, 1:1 binding model; settings: both partners purified
T1 construct: rat IL-23 receptor subunit IL-23R, extracellular domain, residues 24-317, from the construct name hGH.ratIL23R.24-317.GS.Avi.TEV.8His; A GS linker stands between the receptor and the Avi tag; The 8His tag follows a TEV site; also called rat IL-23R ECD; not shown: Avi, C-terminal, kept; His8, C-terminal, cleaved
T1 sequence (looked up): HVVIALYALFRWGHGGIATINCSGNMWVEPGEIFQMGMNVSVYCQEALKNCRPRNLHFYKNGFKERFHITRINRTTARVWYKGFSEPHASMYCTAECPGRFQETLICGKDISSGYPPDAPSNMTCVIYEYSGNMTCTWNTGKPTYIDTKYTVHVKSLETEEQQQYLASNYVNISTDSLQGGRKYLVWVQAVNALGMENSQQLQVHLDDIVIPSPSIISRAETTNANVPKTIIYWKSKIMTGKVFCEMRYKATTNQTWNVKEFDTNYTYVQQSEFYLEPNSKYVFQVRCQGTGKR

Molecule	Effect on IL-12– and IL-23–dependent phosphorylation of STAT4 and STAT3 [1]	Kd [2]
deucravacitinib	inhibits both	–
Ac-[Pen]NT[Trp(7-Me)]K(Ac)[Pen][AEF][2Nal][Thp]EN[3Pal][Sar]-NH2 (disulfide 1-6) [JNJ-77242113]	–	17.5 pM and 12 to 23 pM
